We go through eight compounds from ChEMBL document CHEMBL5661943, “ASAP - In vitro antiviral effect” (2024).

The test system of assay [1] is dengue virus type 2. Description: Functional immunofluorescence assay to measure dose dependent changes in antiviral-drug inhibitory efficacy against Dengue virus type 2 Thailand/16681/84 in Vero E6/TMPRSS2 cells (cotreated with P-gp inhibitor, Elacridar). Cells are treated with antiviral candidates that are serially diluted, following infection, cells are fixed. EC50 is reported via analysis of immunofluorescence staining. The assay has been performed by Icahn School of Medicine at Mount Sinai. It is filed as organism-based, Chlorocebus sabaeus, VeroE6/TMPRSS2.

Assay [2] concerns Zika virus. Description: Functional immunofluorescence assay to measure dose dependent changes in antiviral-drug inhibitory efficacy against Zika virus PRVABC59 in Vero E6/TMPRSS2 cells. Cells are treated with antiviral candidates that are serially diluted, following infection, cells are fixed. EC50 is reported via analysis of immunofluorescence staining. The assay has been performed by Icahn School of Medicine at Mount Sinai. It is filed as organism-based, Chlorocebus sabaeus. The note with it: for EC50: VeroE6/TMPRSS2.

Assay [3] relates to dengue virus type 2. Briefly: Functional immunofluorescence assay to measure dose dependent changes in antiviral-drug inhibitory efficacy against Dengue virus type 2 Thailand/16681/84 in Vero E6/TMPRSS2 cells. Cells are treated with antiviral candidates that are serially diluted, following infection, cells are fixed. EC50 is reported via analysis of immunofluorescence staining. The assay has been performed by Icahn School of Medicine at Mount Sinai. It is filed as organism-based, Chlorocebus sabaeus. The note with it: for EC50: VeroE6/TMPRSS2.

Assay [4] relates to dengue virus type 2. Briefly: Functional assay to measure dose dependent changes in antiviral-drug inhibitory efficacy against Dengue virus type 2 New Guinea C in Vero E6 miRFP670 cells (cotreated with P-gp inhibitor, CP100356). Cells are treated with antiviral candidates that are serially diluted, following infection, cells are fixed. EC50 is reported via analysis of fluorescence intensity using high-content imager. The …. It is filed as organism-based, Chlorocebus sabaeus, Vero C1008. To be noted: Dengue virus.

The test system of assay [5] is Zika virus. Description: EC50 is reported via analysis of immunofluorescence staining. The assay has been performed by Icahn School of Medicine at Mount Sinai. The assay is classed as functional, organism-based, Chlorocebus sabaeus, VeroE6/TMPRSS2. The note with it: for EC90: P-gp concentration 2 uM, P-gp inhibitor Elacidar.
In assay [6] the test system is Zika virus. Briefly: Functional CPE-based assay to measure dose dependent changes in antiviral-drug inhibitory efficacy against Zika virus MR766 in Vero E6 miRFP670 cells. Cells are treated with antiviral candidates that are serially diluted. EC50 is reported via analysis of MTS assay as a readout of CPE. The assay has been performed by KU Leuven. The assay is classed as organism-based, Chlorocebus sabaeus, Vero C1008. To be noted: Zika virus. A general note: Tetrazolium dyes change colour on reduction, which living cells bring about.

“And” between values parts separate entries of the source, which are not always exact repeats. Identical values can stand only once. Some results are limits rather than exact numbers.

For orientation: EC90 means the point of the concentration-response curve where the effect stands at 90%. One may read the EC50 as the concentration needed to bring the measured effect to its halfway point. With `O=C(Nc1cc(Cl)cc(C(=O)Nc2ccc3c(c2)CNC3)c1)OCc1ccccc1`, the EC90 in assay [1] (Baseline response 0 %, Hill slope -0.262, Maximum measured 88.903 %, Maximum response 100 %, Minimum measured 51.493 %, P-gp concentration 2 uM, R squared 0.387, P-gp inhibitor Elacidar) is over 5.56 µM; in assay [1] (Dengue virus, VeroE6/TMPRSS2, Baseline response 0 %, Hill slope 0.742, Maximum measured 298.531 %, Maximum response 100 %, Minimum measured 53.657 %, P-gp concentration 2 uM, R squared 0.04, P-gp inhibitor Elacidar), over 3.33 µM; in assay [2] (VeroE6/TMPRSS2, Maximum measured 887.776 %, Minimum measured 72.98 %), over 50 µM; in assay [3] (VeroE6/TMPRSS2, Baseline response 0 %, Hill slope -0.704, Maximum measured 114.373 %, Maximum response 100 %, Minimum measured 21.903 %, R squared 0.634), over 5.56 µM; in assay [4] (Vero C1008, Maximum measured 108.699 %, Minimum measured 64.199 %, P-gp concentration 500 nM, P-gp inhibitor CP100356), over 50 µM; in assay [5] (Baseline response 0 %, Hill slope -10.107, Maximum measured 106.671 %, Maximum response 100 %, Minimum measured 12.006 %, R squared 0.759), over 5.56 µM. Also, in assay [5] (Zika virus, VeroE6/TMPRSS2, Baseline response 0 %, Hill slope 0.615, Maximum measured 150.152 %, Maximum response 100 %, Minimum measured 64.245 %, R squared 0.072), the EC90 is over 3.33 µM. The EC50 was over 3.33 µM in assay [1] (Dengue virus, VeroE6/TMPRSS2); over 5.56 µM in assay [1] (veroe6/tmprss2); over 50 µM in assay [2]; 0.61 µM in assay [3]; over 50 µM in assay [4] (Vero C1008); over 3.33 µM in assay [5] (Zika virus, VeroE6/TMPRSS2). Besides, in assay [5] (veroe6/tmprss2), a half-maximal effect (EC50) was put at 4.56 µM.

For the compound `NCCCc1cccc(NC(=O)c2cc(Cl)cc(NC(=O)OCc3ccccc3)c2)n1`, the EC50 was over 5.56 µM in assay [1] (Dengue virus, VeroE6/TMPRSS2); over 50 µM in assay [2]; under 0.023 µM in assay [3]; 0.762 µM in assay [5] (Zika virus, VeroE6/TMPRSS2). For the same compound, the EC90 in assay [1] (Dengue virus, VeroE6/TMPRSS2, Baseline response 0 %, Hill slope -0.245, Maximum measured 101.026 %, Maximum response 100 %, Minimum measured 51.347 %, P-gp concentration 2 uM, R squared 0.141, P-gp inhibitor Elacidar) is over 5.56 µM; in assay [2] (VeroE6/TMPRSS2, Maximum measured 444.624 %, Minimum measured 59.048 %) it was over 50 µM; in assay [3] (VeroE6/TMPRSS2, Baseline response 0 %, EC90 CI (lower) 0 uM, EC90 CI (upper) 0.069 uM, Hill slope -0.47, Maximum measured 66.667 %, Maximum response 100 %, Minimum measured 7.762 %, R squared 0.244), 2.12 µM; in assay [5] (Zika virus, VeroE6/TMPRSS2, Baseline response 0 %, Hill slope -0.324, Maximum measured 72.025 %, Maximum response 100 %, Minimum measured 4.462 %, R squared 0.463) it was over 16.7 µM.

Turning to `Cc1cc(CN)cc(NC(=O)c2cc(Cl)cc(NC(=O)OCc3ccccc3)c2)c1`, the EC50 is over 1.85 µM in assay [1] (Dengue virus, VeroE6/TMPRSS2); over 50 µM in assay [2]; over 5.56 µM in assay [3]; 3.14 µM and 0.66 µM in assay [5] (veroe6/tmprss2). The EC90 is over 1.85 µM in assay [1] (Dengue virus, VeroE6/TMPRSS2, Maximum measured 126.603 %, Minimum measured 82.463 %, P-gp concentration 2 uM, P-gp inhibitor Elacidar); over 50 µM in assay [2] (VeroE6/TMPRSS2, Maximum measured 728.77 %, Minimum measured 52.412 %); over 5.56 µM in assay [3] (VeroE6/TMPRSS2, Maximum measured 117.926 %, Minimum measured 57.292 %); over 5.56 µM in assay [5] (Baseline response 0 %, Hill slope -0.823, Maximum measured 127.605 %, Maximum response 100 %, Minimum measured 3.711 %, R squared 0.613); over 3.33 µM in assay [5] (Zika virus, VeroE6/TMPRSS2, Baseline response 0 %, Hill slope -1.09, Maximum measured 145.706 %, Maximum response 100 %, Minimum measured 48.4 %, R squared 0.191).

Take `CCc1cc(C(=O)Nc2cccc(CN)c2)sc1-c1ccc(Cl)cc1`: the EC50 is 1.48 µM in assay [1] (Dengue virus, VeroE6/TMPRSS2); 0.04 µM in assay [3]; 7.88 µM in assay [4] (Vero C1008); over 50 µM in assay [5] (Zika virus, VeroE6/TMPRSS2). For the same compound, the EC90 in assay [1] (Dengue virus, VeroE6/TMPRSS2, Baseline response 0 %, Hill slope -0.734, Maximum measured 115.481 %, Maximum response 100 %, Minimum measured 26.383 %, P-gp concentration 2 uM, R squared 0.805, P-gp inhibitor Elacidar) is over 5.56 µM; in assay [3] (VeroE6/TMPRSS2, Baseline response 0 %, EC90 CI (lower) 0 uM, EC90 CI (upper) […] uM, Hill slope -0.657, Maximum measured 73.173 %, Maximum response 100 %, Minimum measured 2.32 %, R squared 0.658), 1.14 µM; in assay [4] (Vero C1008, Baseline response 0 %, EC90 CI (lower) 5.869 uM, EC90 CI (upper) 6.978 uM, Hill slope -10.543, Maximum measured 99.815 %, Maximum response 100 %, Minimum measured 0.348 %, P-gp concentration 500 nM, R squared 0.992, P-gp inhibitor CP100356) it was 9.71 µM; in assay [5] (Zika virus, VeroE6/TMPRSS2, Baseline response 0 %, Hill slope -0.283, Maximum measured 157.581 %, Maximum response 100 %, Minimum measured 60.948 %, R squared 0.14) it was over 50 µM.

As for `Cc1cc(-c2ccc([C@@H](NC(=O)OCc3ccccc3)C(=O)Nc3cccc(CN)c3)cc2)cs1`, the EC50 in assay [1] (Dengue virus, VeroE6/TMPRSS2) is over 5.56 µM; in assay [2], over 50 µM; in assay [3], 0.145 µM; in assay [5] (Zika virus, VeroE6/TMPRSS2) it was over 50 µM. The EC90 in assay [1] (Dengue virus, VeroE6/TMPRSS2, Maximum measured 25.792 %, Minimum measured 7.149 %, P-gp concentration 2 uM, P-gp inhibitor Elacidar) is over 5.56 µM; in assay [2] (VeroE6/TMPRSS2, Maximum measured 207.969 %, Minimum measured 85.523 %), over 50 µM; in assay [3] (VeroE6/TMPRSS2, Baseline response 0 %, Hill slope -0.322, Maximum measured 78.243 %, Maximum response 100 %, Minimum measured 15.352 %, R squared 0.327) it was over 5.56 µM; in assay [5] (Zika virus, VeroE6/TMPRSS2, Maximum measured 84.809 %, Minimum measured 8.553 %), over 50 µM.

With `NCc1cccc(C(=O)Nc2cc(Cl)cc(NC(=O)OCc3ccccc3)c2)c1`, the EC50 in assay [1] (Dengue virus, VeroE6/TMPRSS2) is 3.17 µM; in assay [3], over 5.56 µM; in assay [5] (veroe6/tmprss2) it was 2.1 µM and 0.867 µM. The EC90 is 5.42 µM in assay [1] (Dengue virus, VeroE6/TMPRSS2); over 5.56 µM in assay [3] (VeroE6/TMPRSS2, Maximum measured 181.372 %, Minimum measured 88.426 %); over 5.56 µM in assay [5] (Baseline response 0 %, Hill slope -0.985, Maximum measured 92.072 %, Maximum response 100 %, Minimum measured 6.61 %, R squared 0.567); over 3.33 µM in assay [5] (Zika virus, VeroE6/TMPRSS2, Baseline response 0 %, Hill slope -0.721, Maximum measured 131.562 %, Maximum response 100 %, Minimum measured 27.938 %, R squared 0.396).

With `O=C(O)c1cc(Cl)ccc1NS(=O)(=O)c1ccc(Oc2ccccc2Cl)cc1`, the EC50 in assay [2] was over 50 µM; in assay [3], under 0.023 µM. The EC90 in assay [2] (VeroE6/TMPRSS2, Baseline response 0 %, Hill slope 0.308, Maximum measured 143.489 %, Maximum response 100 %, Minimum measured 67.888 %, R squared 0.041) is over 50 µM; in assay [3] (VeroE6/TMPRSS2, Baseline response 0 %, Hill slope -0.289, Maximum measured 50.892 %, Maximum response 100 %, Minimum measured 16.572 %, R squared 0.294), over 5.56 µM.

As to `O=C(Nc1cc(Cl)cc(C(=O)Nc2cccc(-n3nn[nH]c3=O)c2)c1)OCc1ccccc1`, the EC50 in assay [1] (Dengue virus, VeroE6/TMPRSS2) was 38.1 µM; in assay [2], 45.7 µM; in assay [6] (Vero C1008), over 50 µM; in assay [4] (Vero C1008) it was 44.1 µM; in assay [5] (Zika virus, VeroE6/TMPRSS2) it was 0.828 µM. For the same compound, the EC90 was over 50 µM in assay [1] (Dengue virus, VeroE6/TMPRSS2, Baseline response 0 %, Hill slope -4.745, Maximum measured 70.688 %, Maximum response 60 %, Minimum measured 12.915 %, P-gp concentration 2 uM, R squared 0.282, P-gp inhibitor Elacidar); over 50 µM in assay [2] (VeroE6/TMPRSS2, Baseline response 0 %, Hill slope -14.888, Maximum measured 123.167 %, Maximum response 100 %, Minimum measured 20.725 %, R squared 0.524); over 50 µM in assay [6] (Vero C1008, Baseline response 0 %, Hill slope -0.529, Maximum measured 3.199 %, Maximum response 100 %, Minimum measured -1.205 %, R squared 0.435); 48.8 µM in assay [4] (Vero C1008); over 5.56 µM in assay [5] (Zika virus, VeroE6/TMPRSS2, Baseline response 0 %, Hill slope -0.989, Maximum measured 91.506 %, Maximum response 100 %, Minimum measured 6.41 %, R squared 0.606).
